From PubChem BioAssay AID2060348 (Molecular Pharmacology Branch, DTP, NCI, 2025)

Tested on: 885724-159-R-J1-PDC spheroids viability
Test: Anticancer human tumor 885724-159-R-J1-PDC patient-derived pancreatic adenocarcinoma cell line growth inhibition [TAK]
Conditions: spheroids with HUVEC and MSC; for IC50: curve of first compound; for viability, T/C: stronger effect = lower value
Source text: Combinatorial screen of targeted agents with TAK-243 and ipatasertib in multi-cell type tumor spheroids
A high-throughput screen of multi-cell type tumor spheroids was designed to identify active combinations of targeted small molecules and TAK-243 or ipatasertib. Complex spheroids include a stromal component modeled by human endothelial cells (HUVEC) and fibroblasts modeled by human mesenchymal stem cells (MSCs). The concentration ranges selected for each drug and investigational agent were based upon clinically achievable concentrations if the clinical Cmax of the agent was known.
Compounds. The drugs and investigational agents: TAK-243 (785004), ipatasertib (767898), everolimus (733504), selumetinib (741078), bortezomib (756655), trametinib (758246), ixazomib (758254), vemurafenib (761431), dabrafenib (764134), sapanisertib (764658), alpelisib (765974), and copanlisib (816437), were obtained from the National Cancer Institute (NCI) Developmental Therapeutics Program Chemical Repository. The FDA-approved anticancer drug set is available from the NCI Developmental Therapeutics Program. […] The stock solutions were prepared in dimethyl sulfoxide (DMSO, Sigma-Aldrich, St. Louis, MO, cat. D2650) at 800-fold the tested concentration and stored at -70 degrees C prior to their use. All drugs and investigational agents were tested over a range starting from a high concentration at or near the clinical Cmax and decreasing in half-log increments. If the clinical Cmax for an agent had not been determined, the highest concentration tested was 10 microM.
NCI60 Cell Culture. NCI60 cell lines were obtained from the NCI Developmental Therapeutics Program Tumor Repository. For each lot of cells, the Repository performed Applied Biosystems AmpFLSTR Identifiler testing with PCR amplification to confirm consistency with the published Identifier STR profile for each cell line. Cells were kept in continuous culture for no more than 20 passages. The optimal seeding densities for each of the cell lines at each time point assessed were determined prior to performing the concentration response studies. Briefly, the NCI60 human tumor lines were grown as monolayers in RPMI 1640 medium supplemented with 10% FBS and 2 mmol/L L-glutamine.
An additional 2 lines were from the NCI60 cell line panel including melanomas, MALME-3M and SK-MEL-2. Pooled donor human umbilical vein endothelial cells (HUVEC, Lonza, cat. CC-2519) and human mesenchymal stem cells (hMSC, Lonza, cat. PT-2501) were purchased from Lonza (Walkersville, MD).
PDMR cell lines were grown in complete medium (DC medium): Dulbecco's modified Eagle's medium (DMEM)/F12 supplemented with 5% fetal bovine serum (FBS), 2 mM L-glutamine, 100 U/mL penicillin and 100 µg/ml streptomycin, 0.4 µg/ml hydrocortisone, 10 ng/ml epidermal growth factor (EGF) recombinant human protein, 24 µg/mL adenine, and 0.1 mg/mL primocin. During culture from frozen stock vials, PDMR cells were cultured in the same medium containing 10 µM Y-27632 (see Table 3). The PDCs were cultured in complete DMEM/F12 media without 10 microM Y-27632 dihydrochloride for at least two passages prior to the screen. The pooled donor HUVEC and hMSC were cultured in endothelial cell growth medium 2 (PromoCell, Heidelberg, Germany, cat. C-22011) and mesenchymal stem cell growth medium 2 (PromoCell, cat. C-28009), respectively. For all experiments, HUVEC and hMSC were used at passages </=5.
For the pre-screen, cell seeding densities were determined from a titration spanning the range from 5,000 to 313 cells per well. The mct-spheroids including 60% malignant cells, 25% HUVEC and 15% MSC dispensed as a mixture into U-bottom Ultra-Low Attachment 384-well plates (Corning, NY)
High-throughput Drug Combination Screening.
Prior to their inoculation into 384-well plates, malignant cells, HUVEC, and hMSC were removed from T flasks using TrypLE express (Thermo Fisher Scientific, cat. 12605036) and harvested by centrifugation for 5 min at 233 x g. […]
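Further: spheroids exposed to drugs for seven days.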
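Wherever viability, T/C is given: 100% = DMSO vehicle control viability.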

Structure (SMILES): COC1CC2CCC(C)C(O)(O2)C(=O)C(=O)N2CCCCC2C(=O)OC(C(C)CC2CCC(OCCO)C(OC)C2)CC(=O)C(C)C=C(C)C(O)C(OC)C(=O)C(C)CC(C)C=CC=CC=C1C (stereo not given) + CC(C)NCC(C(=O)N1CCN(c2ncnc3c2C(C)CC3O)CC1)c1ccc(Cl)cc1
- IC50 (second compound 0.3 µM): > 0.1 µM
- IC50 (second compound 0.949 µM): > 0.1 µM
- IC50 (second compound 3 µM): 0.0283 µM
- IC50 (second compound 9.49 µM): < 0.000316 µM
- IC50 (second compound 30 µM): < 0.000316 µM
- viability, T/C (second compound 0.3 µM, first compound 0.000316 µM): 68.2%
- viability, T/C (second compound 0.3 µM, first compound 0.001 µM): 62.3%
- viability, T/C (second compound 0.3 µM, first compound 0.00316 µM): 62.3%
- viability, T/C (second compound 0.3 µM, first compound 0.01 µM): 58.5%
- viability, T/C (second compound 0.3 µM, first compound 0.0316 µM): 57.4%
- viability, T/C (second compound 0.3 µM, first compound 0.1 µM): 56.3%
- viability, T/C (second compound 0.949 µM, first compound 0.000316 µM): 63.1%
- viability, T/C (second compound 0.949 µM, first compound 0.001 µM): 58.5%
- viability, T/C (second compound 0.949 µM, first compound 0.00316 µM): 56.4%
- viability, T/C (second compound 0.949 µM, first compound 0.01 µM): 59.3%
- viability, T/C (second compound 0.949 µM, first compound 0.0316 µM): 58.4%
- viability, T/C (second compound 0.949 µM, first compound 0.1 µM): 61.2%
- viability, T/C (second compound 3 µM, first compound 0.000316 µM): 60.5%
- viability, T/C (second compound 3 µM, first compound 0.001 µM): 60.4%
- viability, T/C (second compound 3 µM, first compound 0.00316 µM): 53.3%
- viability, T/C (second compound 3 µM, first compound 0.01 µM): 50.7%
- viability, T/C (second compound 3 µM, first compound 0.0316 µM): 52.5%
- viability, T/C (second compound 3 µM, first compound 0.1 µM): 46.2%
- viability, T/C (second compound 9.49 µM, first compound 0.000316 µM): 48.2%
- viability, T/C (second compound 9.49 µM, first compound 0.001 µM): 49.6%
- viability, T/C (second compound 9.49 µM, first compound 0.00316 µM): 47.3%
- viability, T/C (second compound 9.49 µM, first compound 0.01 µM): 41.4%
- viability, T/C (second compound 9.49 µM, first compound 0.0316 µM): 42.5%
- viability, T/C (second compound 9.49 µM, first compound 0.1 µM): 39.4%
- viability, T/C (second compound 30 µM, first compound 0.000316 µM): 31.3%
- viability, T/C (second compound 30 µM, first compound 0.001 µM): 27.5%
- viability, T/C (second compound 30 µM, first compound 0.00316 µM): 27.5%
- viability, T/C (second compound 30 µM, first compound 0.01 µM): 23.8%
- viability, T/C (second compound 30 µM, first compound 0.0316 µM): 29.3%
- viability, T/C (second compound 30 µM, first compound 0.1 µM): 25.5%
